Measurements: patent US6362160B1, “Immunophilin-binding agents prevent glutamate neurotoxicity associated with vascular stroke and neurodegenerative diseases” (The Johns Hopkins University School of Medicine, priority 1993, dated 2002)

Columns and labels:
[1] = tested on: NMDA elicited Ca2+ currents; test: NMDA elicited Ca2+ currents in cortical cultures; type: cell-based, rat; conditions: FK-506 500 nM (data not shown)
[2] = tested on: primary cerebral cortical neuronal cultures; test: cells; type: cell-based
Description: Methods: Primary neuronal cultures from cortex were prepared from fetal Sprague-Dawley rats gestation day 13-14. After dissection, the cells were dissociated by trituration, counted, and plated in 15 mm multi-well (Nunc) plates coated with polyornithine at a density of 3-4×10^5 cells per well. Proliferation of non-neuronal cells was inhibited by applying 10 μg of 5-fluor-2′-deoxyuridine 4 days after plating for a total of 3 days. Neurons were maintained in modified Eagle's medium (MEM), 5% horse serum, 2 mM glutamine in 8% CO2, humidified at 37° C. Media was changed twice a week. Mature neurons (greater than 21 days in culture) were used in all experiments.
Neurotoxicity was determined by exposing the neurons to the various test solutions as previously described (Dawson, et al., Proc. Natl. Acad. Sci., USA, 88:6368-6371 (1991)). Prior to exposure, the cells were washed 3 times with a Tris-buffered control solution (CSS) containing 120 mM NaCl, 5.4 mM KCl, 1.8 mM CaCl2, 25 mM Tris-HCl, 15 mM glucose at pH 7.4. […] Rapamycin (RAPA) was applied 5 min. prior to and during the application of FK-506 and the excitatory amino acids. Following immunosuppressant drug pretreatment, NMDA and quisqualate were applied to the cells for 5 min., then the cells were washed with CSS and replaced with MEM, 21 mM glucose for 24 hr. in the incubator. Exposures to kainate were performed in MEM, 21 mM glucose for 24 hr. in the incubator. NMDA, quisqualate, and kainate were also applied to the neurons without immunosuppressant drug pretreatment. The effect of N-Arg (L-nitroarginine) on NMDA neurotoxicity was assessed as described (Dawson, et al., Proc. Natl. Acad. Sci., USA, 88:6368-6371 (1991)). Twenty to 24 hr. after exposure to test solutions, the neurons were exposed to 0.4% trypan blue in CSS to stain the residue of non-viable cells and to assess toxicity. Viable and non-viable cells were counted with approximately 500-1,500 cells counted per well. At least two separate experiments utilizing four separate wells were performed for each data point shown. A minimum of 4,000-12,000 neurons were counted for each data point. In some experiments photomicrographs were made before and after treatment using a transparent grid at the bottom of each culture plate. Viable and non-viable neurons in identical fields were counted by an observer blinded to study design and treatment protocol.

[3] = tested on: cGMP formation in primary neuronal cortical cultures; test: cGMP levels in primary neuronal cortical cultures; type: cell-based, rat
Description: Methods: Primary neuronal cortical cultures were treated under identical conditions as those used for assessment of neurotoxicity except for the addition of 100 μM isobutylmethylxanthine (IBMX) to all wells to inhibit phosphodiesterases. […] Following ether extraction, cGMP was assayed utilizing an Amersham ^125 I-assay kit according to the manufacturer's instructions. Data represent the mean (±S.E.M.) of 6-12 wells (2-3 different plating of cultures) in duplicate. Statistical significance was determined by the Student's t-test, *p≦0.005.

SMILES: C=CC[C@@H]1/C=C(\C)C[C@H](C)C[C@H](OC)[C@H]2O[C@@](O)(C(=O)C(=O)N3CCCC[C@H]3C(=O)O[C@H](/C(C)=C/[C@@H]3CC[C@@H](O)[C@H](OC)C3)[C@H](C)[C@@H](O)CC1=O)[C@H](C)C[C@@H]2OC [FK-506]
- effect on NMDA elicited Ca2+ currents [1]: no effect
- % Cell Death (± S.E.M.) ([2]; 100 μM Kainate + 500 nM FK-506): 88.1 ± 3.8%
- % Cell Death (± S.E.M.) ([2]; 500 μM Glutamate + 500 nM FK-506): *40.6 ± 3.9%
- % Cell Death (± S.E.M.) ([2]; 500 μM NMDA + 500 pM FK-506): 78.3 ± 4.7%
- % Cell Death (± S.E.M.) ([2]; 500 μM NMDA + 1 nM FK-506): 77.1 ± 4.0%
- % Cell Death (± S.E.M.) ([2]; 500 μM NMDA + 10 nM FK-506): 68.5 ± 11.2%
- % Cell Death (± S.E.M.) ([2]; 500 μM NMDA + 25 nM FK-506): *67.2 ± 4.1%
- % Cell Death (± S.E.M.) ([2]; 500 μM NMDA + 50 nM FK-506): *61.9 ± 5.8%
- % Cell Death (± S.E.M.) ([2]; 500 μM NMDA + 100 nM FK-506): *40.0 ± 9.1%
- % Cell Death (± S.E.M.) ([2]; 500 μM NMDA + 500 nM FK-506): **29.7 ± 5.8%
- % Cell Death (± S.E.M.) ([2]; 500 μM NMDA + 1 μM FK-506): **29.2 ± 4.1%
- % Cell Death (± S.E.M.) ([2]; 500 μM Quisqualate + 500 nM FK-506): 90.5 ± 4.4%
- EC50 ([2]; Rattus norvegicus, applied 5 min prior to and during 5 min NMDA application, read-out: concentration at which 50% protection from NMDA neurotoxicity is evident): 25 to 100 nM
- lowest concentration providing significant protection from NMDA neurotoxicity ([2]; applied 5 min prior to and during 5 min NMDA application): 25 nM
- % Basal cGMP Level (± S.E.M.) ([3]; 300 μM SNP + 100 nM FK-506): 509.9 ± 63.4%
- % Basal cGMP Level (± S.E.M.) ([3]; 500 μM NMDA + 100 nM FK-506): *89.3 ± 25.4%
- reduction of the NMDA stimulation of cGMP levels ([3]; FK-506 100 nM): approximately 80%

SMILES: N[C@@H](CCC(=O)O)C(=O)O [Glutamate]
- % Cell Death (± S.E.M.) ([2]; 500 μM Glutamate alone): 76.0 ± 5.2%

SMILES: C=C(C)[C@H]1CN[C@H](C(=O)O)[C@H]1CC(=O)O [Kainate, kainate]
- % Cell Death (± S.E.M.) ([2]; 100 μM Kainate alone, 24 hr exposure): 83.2 ± 6.3%
- cell death elicited, compared with glutamate (500 μM) ([2]; kainate 100 μM): as much cell death as glutamate

SMILES: CN[C@H](CC(=O)O)C(=O)O [NMDA, N-methyl-D-aspartate]
- % Cell Death (± S.E.M.) ([2]; 500 μM NMDA alone, 5 min exposure, counted 20-24 hr later): 82.8 ± 4.3%
- death of neurons ([2]; 5 min exposure to NMDA, observed 24 hrs later): about 80%
- % Basal cGMP Level (± S.E.M.) ([3]; 500 μM NMDA alone, 5 min, 100 μM IBMX): 552.6 ± 95.6%

SMILES: N[C@@H](Cn1oc(=O)[nH]c1=O)C(=O)O [Quisqualate, quisqualate]
- % Cell Death (± S.E.M.) ([2]; 500 μM Quisqualate alone, 5 min exposure): 85.9 ± 6.0%
- cell death elicited, compared with glutamate (500 μM) ([2]; quisqualate 500 μM): as much cell death as glutamate
